Some test systems named below: 786-0 renal; BT-549 breast; CCRF-CEM leukemia; COLO 205 colon; EKVX NSCLC; HCC-2998 colon; HOP-62 NSCLC; M14 melanoma; MDA-MB-231 breast; MOLT-4 leukemia; OVCAR-8 ovarian; RXF 393 renal; SF-295 CNS; SF-539 CNS; SNB-19 CNS; T-47D breast; UO-31 renal.
What all share (assay): growth of human tumour cells (NCI), 48 h

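The compound was tested at five concentrations on cells cultured in 96-well plates, with a 48-hour exposure period. TGI: total growth inhibition.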 Some results are limits rather than exact numbers.

This note sets out measurements from PubChem BioAssay (NCI).

Take `CC1C(=NO)C(C)C(c2ccccc2)N(N=O)C1c1ccccc1` (configuration not stated): the TGI in the experiment on 786-0 renal came to 42.7 µM; with BT-549 breast it was 89.8 µM; with CCRF-CEM leukemia, 84.5 µM; in the experiment on COLO 205 colon, 31.5 µM; in the experiment on EKVX NSCLC it was 81.8 µM; in the experiment on HCC-2998 colon, 33.8 µM. The TGI in the experiment with HOP-62 NSCLC amounted to 41.6 µM; in the experiment with M14 melanoma it was 29.5 µM; in the experiment with MDA-MB-231 breast, 32.9 µM; in the experiment on MOLT-4 leukemia, 44.6 µM; in the experiment on OVCAR-8 ovarian it was 41.5 µM; in the experiment with RXF 393 renal, 32.7 µM. Besides, the TGI in the experiment with SF-295 CNS came out at 29.5 µM; in the experiment on SF-539 CNS it was 26.5 µM; with SNB-19 CNS, 50.5 µM; in the experiment with T-47D breast it was 38.9 µM; in the experiment with UO-31 renal, 39.1 µM.

As for `COC(=O)C(Cc1ccccc1)NC(=O)C(CCC(=O)OCc1ccccc1)NC(=O)OC(C)(C)C` (configuration not stated), the TGI in the experiment with 786-0 renal, in the experiment with BT-549 breast, in the experiment with CCRF-CEM leukemia, in the experiment on COLO 205 colon, with EKVX NSCLC and with HCC-2998 colon was more than 100 µM throughout. The TGI in the experiment on HOP-62 NSCLC, in the experiment with M14 melanoma, with MDA-MB-231 breast, in the experiment with MOLT-4 leukemia, with OVCAR-8 ovarian and in the experiment on RXF 393 renal was more than 100 µM in each case. In addition, the TGI in the experiment with SF-295 CNS, in the experiment with SF-539 CNS, in the experiment on SNB-19 CNS, in the experiment on T-47D breast and with UO-31 renal was more than 100 µM each time.

With `O=Nc1c(-c2c(O)[nH]c3ccccc23)[nH]c2ccccc12`, the TGI with 786-0 renal is more than 49.9 µM; in the experiment on BT-549 breast it was 30 µM; with CCRF-CEM leukemia it was 29.7 µM; in the experiment on COLO 205 colon, 34.8 µM; with EKVX NSCLC, 9.12 µM; in the experiment with HCC-2998 colon, 16.3 µM. Also, the TGI is more than 48.6 µM in the experiment with HOP-62 NSCLC; 25.9 µM with M14 melanoma; 21.2 µM with MDA-MB-231 breast; more than 100 µM in the experiment on MOLT-4 leukemia; more than 45.5 µM in the experiment on OVCAR-8 ovarian; 13.2 µM with RXF 393 renal. For the same compound, the TGI in the experiment on SF-295 CNS was 99.2 µM; in the experiment with SF-539 CNS, more than 100 µM; in the experiment on SNB-19 CNS, more than 100 µM; in the experiment on T-47D breast, more than 48.7 µM; with UO-31 renal, 13.4 µM.

Regarding `CC(C)(Br)C(Br)CCC(=CCBr)CBr` (mixture of isomers), the TGI was determined as 3.84 µM in the experiment on 786-0 renal; 5.62 µM in the experiment on BT-549 breast; 6.1 µM with CCRF-CEM leukemia; 10.7 µM with COLO 205 colon; 49.7 µM in the experiment with EKVX NSCLC; 26.6 µM with HCC-2998 colon. The TGI is 8.89 µM in the experiment on HOP-62 NSCLC; 4.29 µM in the experiment on M14 melanoma; 26.3 µM with MDA-MB-231 breast; 6.66 µM with MOLT-4 leukemia; 6.36 µM with OVCAR-8 ovarian; 6.48 µM in the experiment with RXF 393 renal. Besides, the TGI with SF-295 CNS came to 10.9 µM; in the experiment with SF-539 CNS, 10.3 µM; in the experiment with SNB-19 CNS, 31.1 µM; with T-47D breast it was 8.53 µM; with UO-31 renal, 27.5 µM.

With `COc1cccc(C(=O)Nc2c3ccccc3nc3ccccc23)c1OC`, the TGI in the experiment with 786-0 renal, with BT-549 breast, in the experiment with CCRF-CEM leukemia, in the experiment with COLO 205 colon, in the experiment with EKVX NSCLC and in the experiment with HCC-2998 colon was more than 100 µM throughout. The TGI in the experiment with HOP-62 NSCLC is more than 100 µM; in the experiment on M14 melanoma it was more than 100 µM; in the experiment on MDA-MB-231 breast, more than 100 µM; in the experiment with MOLT-4 leukemia it was more than 100 µM; in the experiment with OVCAR-8 ovarian, more than 100 µM; with RXF 393 renal it was 72.2 µM. For the same compound, the TGI in the experiment on SF-295 CNS is more than 100 µM; with SF-539 CNS it was more than 100 µM; in the experiment on SNB-19 CNS, more than 100 µM; with T-47D breast it was more than 100 µM; with UO-31 renal, 14.7 µM.

With `O=C1OC2C(O)COC2(O)C1(O)C(C[N+](=O)[O-])c1ccc(Cl)cc1` (configuration not stated), the TGI with 786-0 renal came to 3.45 µM; in the experiment on BT-549 breast it was 13.1 µM; in the experiment with CCRF-CEM leukemia, 24.1 µM; in the experiment on COLO 205 colon it was 12.8 µM; in the experiment with EKVX NSCLC, 51.4 µM; in the experiment on HCC-2998 colon, 13.4 µM. Further, the TGI with HOP-62 NSCLC worked out at 40 µM; in the experiment with M14 melanoma, 13.6 µM; in the experiment on MDA-MB-231 breast, 48.7 µM; in the experiment with MOLT-4 leukemia, 10.9 µM; in the experiment on OVCAR-8 ovarian, 51.1 µM; in the experiment with RXF 393 renal it was 9.21 µM. The TGI in the experiment on SF-295 CNS was found to be 27.9 µM; in the experiment with SF-539 CNS, 14 µM; with SNB-19 CNS, 28.9 µM; in the experiment with T-47D breast, 43.2 µM; in the experiment on UO-31 renal it was 22.7 µM.
